Experimental data reported in patent US7727999B2, “Spiroazacyclic compounds as monoamine receptor modulators” (ACADIA Pharmaceuticals Inc., priority 2001, dated 2010).
Counter-ions that a name gives are not always drawn.

What was measured:
5HT 2C = molecular target: T1, 5HT 2C (Homo sapiens, UniProt P28335); test: R-SAT selectivity profiling, 5HT 2C; type: cell-based
T1 construct: expressed in transfected cells; host or cells: NIH3T3 cells, pSI vector
T1 sequence (P28335 33-458): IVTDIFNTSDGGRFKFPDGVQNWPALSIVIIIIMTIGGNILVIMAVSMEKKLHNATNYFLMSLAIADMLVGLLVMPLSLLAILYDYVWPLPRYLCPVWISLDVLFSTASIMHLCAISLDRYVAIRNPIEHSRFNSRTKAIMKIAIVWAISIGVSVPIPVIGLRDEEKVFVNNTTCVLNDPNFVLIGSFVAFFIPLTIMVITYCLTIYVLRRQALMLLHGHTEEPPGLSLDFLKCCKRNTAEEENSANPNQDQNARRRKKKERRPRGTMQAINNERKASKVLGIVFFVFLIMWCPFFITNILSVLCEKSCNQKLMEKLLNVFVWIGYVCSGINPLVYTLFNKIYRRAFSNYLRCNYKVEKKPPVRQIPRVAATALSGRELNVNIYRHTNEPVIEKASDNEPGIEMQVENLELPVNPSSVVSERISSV
Protocol: (§1) The functional receptor assay, Receptor Selection and Amplification Technology (R-SAT), was used (with minor modifications from that previously described U.S. Pat. No. 5,707,798) to screen compounds for efficacy at the 5-HT2A receptor. Briefly, NIH3T3 cells were grown in 96 well tissue culture plates to 70-80% confluence. Cells were transfected for 12-16 hours with plasmid DNAs using superfect (Qiagen Inc.) as per manufacture's protocols. R-SAT's were generally performed with 50 ng/well of receptor and 20 ng/well of Beta-galactosidase plasmid DNA-All receptor and G-protein constructs used were in the pSI mammalian expression vector (Promega Inc) as described in U.S. Pat. No. 5,707,798. The 5HT2A receptor gene was amplified by nested PCR from brain cDNA using the oligodeoxynucleotides based on the published sequence (see Saltzman et. al. Biochem. Biophys. Res. Comm. 181:1469-78 (1991)). Large-scale transfections, cells were transfected for 12-16 hours, then trypsinized and frozen in DMSO. […] Media was then removed from the plates and marker gene activity was measured by the addition of the beta-galactosidase substrate ONPG (in PBS with 5% NP-40). The resulting calorimetric reaction was measured in a spectrophotometric plate reader (Titertek Inc.) at […]. All data were analyzed using the computer program XLFit (IDBSm). […]

5HT1A = molecular target: T2, 5HT1A (Homo sapiens, UniProt P08908); test: R-SAT selectivity profiling, 5HT1A; type: cell-based; details: antagonist assay, read-out: pEC50 or pIC50 (converted)
T2 construct: expressed in transfected cells; host or cells: NIH3T3 cells, pSI vector
T2 sequence (P08908 1-422): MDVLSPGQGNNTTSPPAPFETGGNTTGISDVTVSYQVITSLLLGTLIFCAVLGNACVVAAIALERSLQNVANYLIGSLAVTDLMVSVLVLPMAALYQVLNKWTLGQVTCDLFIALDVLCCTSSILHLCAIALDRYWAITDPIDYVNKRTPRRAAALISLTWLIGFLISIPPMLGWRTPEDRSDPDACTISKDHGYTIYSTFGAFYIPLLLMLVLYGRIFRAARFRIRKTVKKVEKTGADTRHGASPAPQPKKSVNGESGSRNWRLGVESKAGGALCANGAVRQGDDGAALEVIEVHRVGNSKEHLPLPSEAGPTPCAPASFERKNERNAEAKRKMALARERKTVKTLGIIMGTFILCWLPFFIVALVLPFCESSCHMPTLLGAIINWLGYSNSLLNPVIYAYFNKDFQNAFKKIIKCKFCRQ
Protocol: as §1

5-HT2A receptor = molecular target: T3, 5-HT2A receptor (Homo sapiens, UniProt P28223); test: R-SAT functional receptor assay at the 5-HT2A receptor; type: cell-based; details: for IC50: R-SAT, NIH3T3 cells, inverse agonism (repression of basal response), read-out: 5HT2A pIC50 (converted)
T3 construct: expressed in transfected cells; host or cells: NIH3T3 cells, pSI mammalian expression vector
T3 sequence (P28223 whole entry): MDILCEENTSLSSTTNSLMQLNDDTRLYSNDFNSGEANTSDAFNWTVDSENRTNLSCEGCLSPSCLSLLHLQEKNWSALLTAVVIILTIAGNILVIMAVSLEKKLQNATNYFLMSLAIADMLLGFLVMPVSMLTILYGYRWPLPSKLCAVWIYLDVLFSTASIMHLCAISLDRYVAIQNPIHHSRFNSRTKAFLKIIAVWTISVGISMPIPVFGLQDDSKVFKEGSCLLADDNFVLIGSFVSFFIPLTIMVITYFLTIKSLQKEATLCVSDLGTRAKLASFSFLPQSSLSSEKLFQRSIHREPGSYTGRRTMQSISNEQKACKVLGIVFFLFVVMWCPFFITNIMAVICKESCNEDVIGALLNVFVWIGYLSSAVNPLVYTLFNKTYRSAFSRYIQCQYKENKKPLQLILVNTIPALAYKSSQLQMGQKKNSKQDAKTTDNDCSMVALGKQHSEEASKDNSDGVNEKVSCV
From the text: The EC50 for an agonist is intended to denote the concentration of a compound needed to achieve 50% of a maximal response seen in R-SAT. For inverse agonists, EC50 is intended to denote the concentration of a compound needed to achieve 50% inhibition of an R-SAT response from basal, no compound, levels.
The functional receptor assay, Receptor Selection and Amplification Technology (R-SAT), was used (with minor modifications from that previously described U.S. Pat. No. 5,707,798) to screen compounds for efficacy at the 5-HT2A receptor. Briefly, NIH3T3 cells were grown in 96 well tissue culture plates to 70-80% confluence. Cells were transfected for 12-16 hours with plasmid DNAs using superfect (Qiagen Inc.) as per manufacture's protocols. R-SAT's were generally performed with 50 ng/well of receptor and 20 ng/well of Beta-galactosidase plasmid DNA-All receptor and G-protein constructs used were in the pSI mammalian expression vector (Promega Inc) as described in U.S. Pat. No. 5,707,798. The 5HT2A receptor gene was amplified by nested PCR from brain cDNA using the oligodeoxynucleotides based on the published sequence (see Saltzman et. al. Biochem. Biophys. Res. Comm. 181:1469-78 (1991)). Large-scale transfections, cells were transfected for 12-16 hours, then trypsinized and frozen in DMSO. Frozen cells were later thawed, plated at 10,000-40,000 cells per well of a 96 well plate that contained drug. With both methods, cells were then grown in a humidified atmosphere with 5% ambient CO2 for five days. Media was then removed from the plates and marker gene activity was measured by the addition of the beta-galactosidase substrate ONPG (in PBS with 5% NP-40). The resulting […] reaction was measured in a spectrophotometric plate reader (Titertek Inc.) at […]. All data were analyzed using the computer program XLFit (IDBSm). Efficacy is the percent maximal repression compared to repression by a control compound (ritanserin in the case of 5HT2A). pIC50 is the negative of the log(IC50), where IC50 is the calculated concentration in Molar that produces 50% maximal repression.
The R-SAT assay (described above in example) was used to investigate the selectivity of 4-(4-Fluoro-benzyl)-3-(4-isobutoxy-benzyl)-8-methyl-1-oxa-3,8-diaza-spiro[4.5]decan-2-one.

[1] = tested on: spontaneous locomotor activity; test: Spontaneous locomotor activity in mice; type: in vivo; details: at doses that attenuate MK-801 hyperactivity; compound administered alone
Protocol: Male Non-Swiss Albino mice (Harlan Sprague-Dawley) were housed (4 mice/cage) in rooms with temperature and humidity controlled and water and food (Harlan Teklad) freely available. Mice were kept on a 12-hr light:dark cycle. For locomotor experiments, plastic 20×20×30 cm activity cages were equipped with photocell beams (AccuScan Instruments). For hyperactivity experiments, mice were treated with 0.3 mg/kg dizocilpine i.p. 15 min before the session. Mice were treated with 69NLS75 s.c. 10 min before the session or p.o. 30 min before the session and placed into the activity cages. For spontaneous activity, 69NLS75 was administered alone. Locomotor data were collected during a 15 min session without habituation in a lit room. Each dose combination was tested in a separate group of animals (n=8). Distance traveled (cm) was calculated and averaged followed by ANOVA and post-hoc Dunnett's t-test comparisons.

m3 = molecular target: T4, m3 (Homo sapiens, UniProt P20309); test: R-SAT selectivity profiling, m3; type: cell-based; details: m3, antagonist assay; read-out: pEC50 or pIC50 (converted)
T4 construct: expressed in transfected cells; host or cells: NIH3T3 cells, pSI vector
T4 sequence (P20309 whole entry): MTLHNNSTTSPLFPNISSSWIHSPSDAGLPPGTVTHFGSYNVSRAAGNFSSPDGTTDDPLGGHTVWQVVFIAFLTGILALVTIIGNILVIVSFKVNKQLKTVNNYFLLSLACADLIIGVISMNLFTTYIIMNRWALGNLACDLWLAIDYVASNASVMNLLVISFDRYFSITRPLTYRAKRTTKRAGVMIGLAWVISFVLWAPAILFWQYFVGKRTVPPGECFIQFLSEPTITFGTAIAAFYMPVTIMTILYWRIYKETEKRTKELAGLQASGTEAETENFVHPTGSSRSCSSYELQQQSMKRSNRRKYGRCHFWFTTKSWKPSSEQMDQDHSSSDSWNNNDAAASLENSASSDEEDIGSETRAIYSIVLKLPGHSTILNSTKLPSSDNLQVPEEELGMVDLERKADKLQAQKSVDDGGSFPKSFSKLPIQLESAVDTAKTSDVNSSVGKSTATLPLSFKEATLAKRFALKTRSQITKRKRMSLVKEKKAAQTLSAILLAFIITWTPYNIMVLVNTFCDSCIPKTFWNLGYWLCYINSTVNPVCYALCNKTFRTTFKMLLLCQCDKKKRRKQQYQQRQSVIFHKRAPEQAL
Protocol: as §1

alpha 2A = molecular target: T5, alpha 2A (Homo sapiens, UniProt P08913); test: R-SAT selectivity profiling, alpha 2A; type: cell-based; details: antagonist assay, read-out: pEC50 or pIC50 (converted)
T5 construct: expressed in transfected cells; host or cells: NIH3T3 cells, pSI vector
T5 sequence (P08913 1-465): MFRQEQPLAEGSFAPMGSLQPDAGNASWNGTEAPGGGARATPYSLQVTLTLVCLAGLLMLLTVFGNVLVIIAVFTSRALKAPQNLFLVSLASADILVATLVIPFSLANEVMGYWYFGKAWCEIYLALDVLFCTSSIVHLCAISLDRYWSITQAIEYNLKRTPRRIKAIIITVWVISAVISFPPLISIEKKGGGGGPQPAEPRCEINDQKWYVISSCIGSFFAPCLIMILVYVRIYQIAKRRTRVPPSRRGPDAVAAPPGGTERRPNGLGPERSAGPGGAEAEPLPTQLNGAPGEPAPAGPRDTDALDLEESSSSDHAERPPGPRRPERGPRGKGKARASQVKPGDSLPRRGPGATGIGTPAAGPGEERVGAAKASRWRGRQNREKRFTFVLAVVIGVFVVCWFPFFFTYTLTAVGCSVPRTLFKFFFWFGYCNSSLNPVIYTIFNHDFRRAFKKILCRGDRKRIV
Protocol: as §1

[2] = tested on: MK-801-induced hyperactivity in mice; test: Attenuation of MK-801 (dizocilpine)-induced hyperactivity in mice; type: in vivo; details: for MED (mg/kg) p.o.: mice treated with MK801, oral administration; for dose giving statistically significant decrease of MK-801-induced hyperactivity compared to vehicle control: 0.3 mg/kg dizocilpine i.p.
Protocol: Male Non-Swiss Albino mice (Harlan Sprague-Dawley) were housed (4 mice/cage) in rooms with temperature and humidity controlled and water and food (Harlan Teklad) freely available. Mice were kept on a 12-hr light:dark cycle. For locomotor experiments, plastic 20×20×30 cm activity cages were equipped with photocell beams (AccuScan Instruments).
For hyperactivity experiments, mice were treated with 0.3 mg/kg dizocilpine i.p. 15 min before the session. Mice were treated with 69NLS75 s.c. 10 min before the session or p.o. 30 min before the session and placed into the activity cages. For spontaneous activity, 69NLS75 was administered alone. Locomotor data were collected during a 15 min session without habituation in a lit room. Each dose combination was tested in a separate group of animals (n=8). Distance traveled (cm) was calculated and averaged followed by ANOVA and post-hoc Dunnett's t-test comparisons.
The effect of various compounds on locomotor activity in mice treated with MK801 was observed as described above.
Animals received 0.1-30 mg/kg of the compound indicated via subcutaneous injection or oral administration. MED indicates the minimum effective dose at which a statistically significant reduction of locomotor activity (described above) was observed. MED=minimum effective dose in vivo.

H1 = molecular target: T6, H1 (Homo sapiens, UniProt P35367); test: R-SAT selectivity profiling, H1; type: cell-based; details: H1, antagonist assay; read-out: pEC50 or pIC50 (converted)
T6 construct: expressed in transfected cells; host or cells: NIH3T3 cells, pSI vector
T6 sequence (P35367 whole entry): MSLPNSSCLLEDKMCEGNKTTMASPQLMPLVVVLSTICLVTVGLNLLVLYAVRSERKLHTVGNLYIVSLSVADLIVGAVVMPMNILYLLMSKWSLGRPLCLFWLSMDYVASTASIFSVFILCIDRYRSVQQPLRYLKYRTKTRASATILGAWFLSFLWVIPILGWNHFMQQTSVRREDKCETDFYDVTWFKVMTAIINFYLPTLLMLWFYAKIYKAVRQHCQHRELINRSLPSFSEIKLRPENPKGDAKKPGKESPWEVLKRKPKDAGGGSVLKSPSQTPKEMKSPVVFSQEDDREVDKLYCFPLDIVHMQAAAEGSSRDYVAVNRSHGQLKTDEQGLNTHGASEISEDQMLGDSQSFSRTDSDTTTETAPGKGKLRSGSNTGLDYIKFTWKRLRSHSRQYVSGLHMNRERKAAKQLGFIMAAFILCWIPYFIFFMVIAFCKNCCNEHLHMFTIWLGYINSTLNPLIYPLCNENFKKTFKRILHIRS
Protocol: as §1

[3] = minimum effective dose for statistically significant reduction of locomotor activity
[4] = efficacy: percent maximal repression compared to ritanserin

Q: Which “efficacy in brackets (%)” value (5HT 2C) does the source give for `CC(C)COc1ccc(CN2C(=O)OC3(CCN(C)CC3)C2Cc2ccc(F)cc2)cc1.Cl` (racemic) [Compound 69NLS75, 4-(4-Fluorobenzyl)-3-(4-isobutoxybenzyl)-8-methyl-1-oxa-3,8-diaza-spiro[4.5]decan-2-one, hydrochloride] here?
A: Its value is 77%.

Q: What about the IC50 (5HT 2C; 5HT 2C, inverse agonist assay, read-out: pEC50 or pIC50 (converted)) of the same compound?
A: Its IC50 is 31.6 nM.

Q: And the IC50 (5HT1A)?
A: The IC50 was 398 nM.

Q: And the “efficacy in brackets (%)” value (5-HT2A receptor; 5HT2A, inverse agonist assay)?
A: Its value is 94%.

Q: And the “pEC50 or pIC50” value (5-HT2A receptor; 5HT2A, inverse agonist assay)?
A: Its value is 9.5.

Q: And the IC50 (5-HT2A receptor)?
A: Its IC50 is 0.316 nM.

Q: What about the Emax (5-HT2A receptor; efficacy: percent maximal repression compared to ritanserin, read-out: 5HT2A % inhibition) of the same compound?
A: The Emax was 94%.

Q: What about the “effect on spontaneous locomotor activity” value [1] of the same compound?
A: The value was “no effect”.

Q: What about the IC50 (m3) of the same compound?
A: Its IC50 is 398 nM.

Q: And the IC50 (alpha 2A)?
A: The IC50 was 501 nM.

Q: And the “effect on MK-801-induced hyperactivity in mice” value ([2]; distance traveled, 15 min session)?
A: The value was “dose-related decrease”.

Q: What about the “MED (mg/kg) p.o.” value [2, 3] of the same compound?
A: Its value is 3 mg/kg.

Q: What about the “MED (mg/kg) s.c.” value ([2]; minimum effective dose for statistically significant reduction of locomotor activity, mice treated with MK801, subcutaneous injection) of the same compound?
A: Its value is 3 mg/kg.

Q: What about the “dose giving statistically significant decrease of MK-801-induced hyperactivity compared to vehicle control” value ([2]; p.o. 30 min before session) of the same compound?
A: Its value is 3 mg/kg.

Q: What about the “dose giving statistically significant decrease of MK-801-induced hyperactivity compared to vehicle control” value ([2]; s.c. 10 min before session) of the same compound?
A: Its value is 3 mg/kg.

Q: And the IC50 (H1)?
A: The IC50 was 200 nM.

Q: Which “MED (mg/kg) p.o.” value [2, 3] does the source give for `CC(C)COc1ccc(CN2C(=O)OC3(CCN(CCC4OCCO4)CC3)C2Cc2ccc(F)cc2)cc1.Cl` (centres unmarked) [Compound 69NLS79-II, 8-(2-[1,3]Dioxolan-2-yl-ethyl)-4-(4-fluorobenzyl)-3-(4-isobutoxybenzyl)-1-oxa-3,8-diaza-spiro[4.5]decan-2-one, hydrochloride] here?
A: The value was 3 mg/kg.

Q: With `CN1CCC2(CC1)OC(=O)N(Cc1ccc(OCC3CC3)cc1)C2Cc1ccc(F)cc1.Cl` (centres unmarked) [Compound 69NLS52, 3-(4-Cyclopropylmethoxybenzyl)-4-(4-fluorobenzyl)-8-methyl-1-oxa-3,8-diaza-spiro[4.5]decan-2-one, hydrochloride] as the compound, how does the “MED (mg/kg) p.o.” value [2, 3] read?
A: The value was 10 mg/kg.

Q: How did the IC50 (5-HT2A receptor) turn out when `CC(C)COc1ccc(CN2C(=O)OC3(CCN(C)CC3)[C@H]2Cc2ccc(F)cc2)cc1.Cl` (single isomer, unassigned) [Compound 78NLS62, hydrochloride] was run?
A: Its IC50 is 6.31 nM.

Q: Which “enantiomer preference at the 5-HT2A receptor in vitro” value (5-HT2A receptor; (S)- versus (R)-enantiomer, Table 1) does the source give for `CC(C)COc1ccc(CN2C(=O)OC3(CCN(C)CC3)[C@@H]2Cc2ccc(F)cc2)cc1` (single isomer, unassigned) [Compound 78NLS59, hydrochloride] here?
A: Its value is “eutomer”.

Q: And the IC50 (5-HT2A receptor)?
A: Its IC50 is 0.251 nM.

Q: What about the 5HT2A % inhibition (5-HT2A receptor; [4]) of the same compound?
A: The 5HT2A % inhibition was 98%.

Q: How did the 5HT2A % inhibition (5-HT2A receptor; [4]) turn out when `CC(C)COc1ccc(CN2C(=O)OC3(CCN(C)CC3)[C@H]2Cc2ccc(F)cc2)cc1.Cl` (single isomer, unassigned) [Compound 78NLS62] was run?
A: The 5HT2A % inhibition was 89%.
